Results as given in patent US12527325B2, “Pesticidally active diazine-amide compounds” (SYNGENTA CROP PROTECTION AG, priority 2019, dated 2026).

Assays:
Assay type in all cases: in vivo
Diabrotica balteata = assay: Example B1: Diabrotica balteata (Corn Root Worm); conditions: 96 h, application rate of 200 ppm, sprayed maize sprouts, L2 larvae, 4 days after infestation, read-out: control in at least one of the two categories (mortality or growth inhibition)
Experimental: Example B1: Diabrotica balteata (Corn Root Worm)
Maize sprouts placed onto an agar layer in 24-well microtiter plates were treated with aqueous test solutions prepared from 10′000 ppm DMSO stock solutions by spraying. After drying, the plates were infested with L2 larvae (6 to 10 per well). The samples were assessed for mortality and growth inhibition in comparison to untreated samples 4 days after infestation.

Chilo suppressalis = assay: Example B4: Chilo suppressalis (Striped Rice Stemborer); conditions: 144 h, application rate of 200 ppm, artificial diet, L2 larvae, 6 days after infestation, read-out: control in at least one of the three categories (mortality, anti-feedant or growth inhibition)
Experimental: Example B4: Chilo suppressalis (Striped Rice Stemborer)
24-well microtiter plates with artificial diet were treated with aqueous test solutions prepared from 10′000 ppm DMSO stock solutions by pipetting. After drying, the plates were infested with L2 larvae (6-8 per well). The samples were assessed for mortality, anti-feeding effect, and growth inhibition in comparison to untreated samples 6 days after infestation. Control of Chilo suppressalis by a test sample is given when at least one of the categories mortality, anti-feedant effect, and growth inhibition is higher than the untreated sample.

Plutella xylostella [1] = assay: Example B5: Plutella xylostella (Diamond Back Moth); conditions: 192 h, application rate of 200 ppm, 24-well artificial diet, eggs, 8 days after infestation, read-out: control in at least one of the two categories (mortality or growth inhibition)
Experimental: Example B5: Plutella xylostella (Diamond Back Moth)
24-well microtiter plates with artificial diet were treated with aqueous test solutions prepared from 10′000 ppm DMSO stock solutions by pipetting. After drying, Plutella eggs were pipetted through a plastic stencil onto a gel blotting paper and the plate was closed with it. The samples were assessed for mortality and growth inhibition in comparison to untreated samples 8 days after infestation.

Spodoptera littoralis = assay: Example B9: Spodoptera littoralis (Egyptian Cotton Leaf Worm), cotton leaf disc spray; conditions: foliar, 72 h, application rate of 200 ppm, sprayed cotton leaf discs, L1 larvae, 3 days after infestation, read-out: control in at least one of the three categories (mortality, anti-feedant or growth inhibition)
Plutella xylostella [2] = assay: Example B12: Plutella xylostella (Diamondback Moth), 96-well artificial diet; conditions: 216 h, application rate of 500 ppm, eggs, 9 days after infestation
Experimental: Example B12: Plutella xylostella (Diamondback Moth)
96-well microtiter plates containing artificial diet were treated with aqueous test solutions, prepared from 10′000 ppm DMSO stock solutions, by a liquid handling robot. After drying, eggs (˜30 per well) were infested onto a netted lid which was suspended above the diet. The eggs hatch and L1 larvae move down to the diet. The samples were assessed for mortality 9 days after infestation.

CC(NC(=O)c1cc(C2CC2)cc(C(F)(F)F)c1)c1nccnc1-c1ccc(F)cn1 (centres unmarked) [P40, 3-cyclopropyl-N-[1-[3-(5-fluoro-2-pyridyl)pyrazin-2-yl]ethyl]-5-(trifluoromethyl)benzamide]
≥ 80%: percent control (mortality or growth inhibition) at 200 ppm (Diabrotica balteata) | percent control (mortality, anti-feedant effect or growth inhibition) at 200 ppm (Chilo suppressalis) | percent control (mortality or growth inhibition) at 200 ppm (Plutella xylostella [1]) | percent control (mortality, anti-feedant effect or growth inhibition) at 200 ppm (Spodoptera littoralis) | mortality at 500 ppm (Plutella xylostella [2])

CC(NC(=O)c1cc(C(F)(F)F)cc(S(=O)(=O)C(F)(F)F)c1)c1nccnc1-c1ccccn1 (centres unmarked) [P13, N-[1-[3-(2-pyridyl)pyrazin-2-yl]ethyl]-3-(trifluoromethyl)-5-(trifluoromethylsulfonyl) benzamide]
≥ 80%: percent control (mortality or growth inhibition) at 200 ppm (Diabrotica balteata) | percent control (mortality, anti-feedant effect or growth inhibition) at 200 ppm (Chilo suppressalis) | percent control (mortality or growth inhibition) at 200 ppm (Plutella xylostella [1]) | percent control (mortality, anti-feedant effect or growth inhibition) at 200 ppm (Spodoptera littoralis) | mortality at 500 ppm (Plutella xylostella [2])

CC(NC(=O)c1cc(C(F)(F)F)cc(S(=O)(=O)C(F)(F)F)c1)c1nccnc1-c1ncc(C2CC2)cn1 (centres unmarked) [P11, N-[1-[3-(5-cyclopropylpyrimidin-2-yl)pyrazin-2-yl]ethyl]-3-(trifluoromethyl)-5-(trifluoromethylsulfonyl) benzamide]
≥ 80%: percent control (mortality, anti-feedant effect or growth inhibition) at 200 ppm (Chilo suppressalis) | percent control (mortality or growth inhibition) at 200 ppm (Plutella xylostella [1]) | percent control (mortality, anti-feedant effect or growth inhibition) at 200 ppm (Spodoptera littoralis) | mortality at 500 ppm (Plutella xylostella [2])

CC(NC(=O)c1cc(C2CC2)cc(C(F)(F)F)c1)c1nccnc1-c1ccc(Br)cn1 (centres unmarked) [P29, N-[1-[3-(5-bromo-2-pyridyl)pyrazin-2-yl]ethyl]-3-cyclopropyl-5-(trifluoromethyl)benzamide]
≥ 80%: percent control (mortality or growth inhibition) at 200 ppm (Plutella xylostella [1]) | mortality at 500 ppm (Plutella xylostella [2])

CC(NC(=O)c1cc(C(F)(F)F)cc(C(C)(C)C#N)c1)c1nccnc1-c1ccc(Cl)cn1 (centres unmarked) [P8, N-[1-[3-(5-chloro-2-pyridyl)pyrazin-2-yl]ethyl]-3-(1-cyano-1-methyl-ethyl)-5-(trifluoromethyl) benzamide]
≥ 80%: percent control (mortality or growth inhibition) at 200 ppm (Diabrotica balteata) | percent control (mortality, anti-feedant effect or growth inhibition) at 200 ppm (Chilo suppressalis) | percent control (mortality or growth inhibition) at 200 ppm (Plutella xylostella [1]) | percent control (mortality, anti-feedant effect or growth inhibition) at 200 ppm (Spodoptera littoralis)

CC(NC(=O)c1cc(C2CC2)cc(C(F)(F)F)c1)c1nccnc1-c1ccc(Cl)cn1 (centres unmarked) [P18, N-[1-[3-(5-chloro-2-pyridyl)pyrazin-2-yl]ethyl]-3-cyclopropyl-5-(trifluoromethyl)benzamide]
≥ 80%: percent control (mortality, anti-feedant effect or growth inhibition) at 200 ppm (Chilo suppressalis) | percent control (mortality or growth inhibition) at 200 ppm (Plutella xylostella [1]) | mortality at 500 ppm (Plutella xylostella [2])

CC(NC(=O)c1cc(C(F)(F)F)nc(C2(C#N)CC2)c1)c1nccnc1-c1ccc(F)cn1 (centres unmarked) [P27, 2-(1-cyanocyclopropyl)-N-[1-[3-(5-fluoro-2-pyridyl)pyrazin-2-yl]ethyl]-6-(trifluoromethyl)pyridine-4-carboxamide]
≥ 80%: percent control (mortality, anti-feedant effect or growth inhibition) at 200 ppm (Chilo suppressalis) | percent control (mortality or growth inhibition) at 200 ppm (Plutella xylostella [1]) | mortality at 500 ppm (Plutella xylostella [2])

CC(NC(=O)c1cc(C(F)(F)F)cc(C(F)(F)C2CC2)c1)c1nccnc1-c1ccc(F)cn1 (centres unmarked) [P38, 3-[cyclopropyl (difluoro)methyl]-N-[1-[3-(5-fluoro-2-pyridyl)pyrazin-2-yl]ethyl]-5-(trifluoromethyl)benzamide]
≥ 80%: percent control (mortality or growth inhibition) at 200 ppm (Plutella xylostella [1]) | mortality at 500 ppm (Plutella xylostella [2])

CC(NC(=O)c1cc(C(F)(F)F)cc(C(C)(C)C#N)c1)c1nccnc1-c1ncc(Br)cn1 (centres unmarked) [P49, N-[1-[3-(5-bromopyrimidin-2-yl)pyrazin-2-yl]ethyl]-3-(1-cyano-1-methyl-ethyl)-5-(trifluoromethyl)benzamide]
≥ 80%: percent control (mortality or growth inhibition) at 200 ppm (Diabrotica balteata) | percent control (mortality, anti-feedant effect or growth inhibition) at 200 ppm (Chilo suppressalis) | percent control (mortality or growth inhibition) at 200 ppm (Plutella xylostella [1]) | percent control (mortality, anti-feedant effect or growth inhibition) at 200 ppm (Spodoptera littoralis)

CC(NC(=O)c1cc(C(F)(F)F)cc(S(=O)(=O)C(F)(F)F)c1)c1nccnc1-c1ccc(F)cn1 (centres unmarked) [P12, N-[1-[3-(5-fluoro-2-pyridyl)pyrazin-2-yl]ethyl]-3-(trifluoromethyl)-5-(trifluoromethylsulfonyl) benzamide]
≥ 80%: percent control (mortality, anti-feedant effect or growth inhibition) at 200 ppm (Chilo suppressalis) | mortality at 500 ppm (Plutella xylostella [2])

CC(NC(=O)c1cc(C(F)(F)F)cc(C(C)(C)C#N)c1)c1nccnc1-c1ccccn1 (centres unmarked) [P7, 3-(1-cyano-1-methyl-ethyl)-N-[1-[3-(2-pyridyl)pyrazin-2-yl]ethyl]-5-(trifluoromethyl) benzamide]
≥ 80%: percent control (mortality or growth inhibition) at 200 ppm (Diabrotica balteata) | percent control (mortality, anti-feedant effect or growth inhibition) at 200 ppm (Chilo suppressalis) | percent control (mortality or growth inhibition) at 200 ppm (Plutella xylostella [1]) | percent control (mortality, anti-feedant effect or growth inhibition) at 200 ppm (Spodoptera littoralis)

CC(NC(=O)c1cc(C(F)(F)F)cc(S(=O)(=O)C(F)(F)F)c1)c1nccnc1-c1ccc(Br)cn1 (centres unmarked) [P14, N-[1-[3-(5-bromo-2-pyridyl)pyrazin-2-yl]ethyl]-3-(trifluoromethyl)-5-(trifluoromethylsulfonyl) benzamide]
≥ 80%: mortality at 500 ppm (Plutella xylostella [2])

CC(NC(=O)c1cc(C(F)(F)F)cc(C(F)(F)C2CC2)c1)c1nccnc1-c1ncc(Br)cn1 (centres unmarked) [P53, N-[1-[3-(5-bromopyrimidin-2-yl)pyrazin-2-yl]ethyl]-3-[cyclopropyl(difluoro)methyl]-5-(trifluoromethyl)benzamide]
≥ 80%: percent control (mortality or growth inhibition) at 200 ppm (Diabrotica balteata) | percent control (mortality, anti-feedant effect or growth inhibition) at 200 ppm (Chilo suppressalis) | percent control (mortality or growth inhibition) at 200 ppm (Plutella xylostella [1]) | percent control (mortality, anti-feedant effect or growth inhibition) at 200 ppm (Spodoptera littoralis)

CC(NC(=O)c1cc(C(F)(F)F)cc(S(=O)(=O)C(F)(F)F)c1)c1nccnc1-c1ccc(Cl)cn1 (centres unmarked) [P15, N-[1-[3-(5-chloro-2-pyridyl)pyrazin-2-yl]ethyl]-3-(trifluoromethyl)-5-(trifluoromethylsulfonyl) benzamide]
≥ 80%: mortality at 500 ppm (Plutella xylostella [2])

CC(NC(=O)c1cc(C(F)(F)F)cc(C(C)(C)C#N)c1)c1nccnc1-c1ncc(C2CC2)cn1 (centres unmarked) [P6, 3-(1-cyano-1-methyl-ethyl)-N-[1-[3-(5-cyclopropylpyrimidin-2-yl)pyrazin-2-yl]ethyl]-5-(trifluoromethyl) benzamide]
≥ 80%: percent control (mortality or growth inhibition) at 200 ppm (Diabrotica balteata) | percent control (mortality, anti-feedant effect or growth inhibition) at 200 ppm (Chilo suppressalis) | percent control (mortality or growth inhibition) at 200 ppm (Plutella xylostella [1]) | percent control (mortality, anti-feedant effect or growth inhibition) at 200 ppm (Spodoptera littoralis)

CC(NC(=O)c1cc(C2CC2)cc(C(F)(F)F)c1)c1nccnc1-c1ccccn1 (centres unmarked) [P33, 3-cyclopropyl-N-[1-[3-(2-pyridyl)pyrazin-2-yl]ethyl]-5-(trifluoromethyl)benzamide]
≥ 80%: percent control (mortality or growth inhibition) at 200 ppm (Diabrotica balteata) | percent control (mortality, anti-feedant effect or growth inhibition) at 200 ppm (Chilo suppressalis) | percent control (mortality or growth inhibition) at 200 ppm (Plutella xylostella [1]) | mortality at 500 ppm (Plutella xylostella [2])

CC(NC(=O)c1cc(C(F)(F)F)cc(C(C)(C)C#N)c1)c1nccnc1-c1ccc(Br)cn1 (centres unmarked) [P9, N-[1-[3-(5-bromo-2-pyridyl)pyrazin-2-yl]ethyl]-3-(1-cyano-1-methyl-ethyl)-5-(trifluoromethyl) benzamide]
≥ 80%: percent control (mortality or growth inhibition) at 200 ppm (Diabrotica balteata) | percent control (mortality, anti-feedant effect or growth inhibition) at 200 ppm (Chilo suppressalis) | percent control (mortality or growth inhibition) at 200 ppm (Plutella xylostella [1]) | percent control (mortality, anti-feedant effect or growth inhibition) at 200 ppm (Spodoptera littoralis)
